The structures appear in SMILES notation. Activity calls are given as the source filed them. The rule behind the calls is not given here.

The test system of data set [1] is Neuron. In words: Neuroplasticity effect in Wistar rat brain cortical neuron assessed as increase in neurite outgrowth at 0.25 to 10 uM after 72 hrs. The class given is functional, cell-based. The conditions noted are these: dose 0.25-10 µM.
Data set [2] concerns Neuron. In words: Cytotoxicity against Wistar rat brain cortical neurons assessed as neurite restriction. The format is toxicity, cell-based. The conditions noted are these: dose 0.25-10 µM.

As to `CN1[C@@H]2CCC[C@H]1[C@H]1[C@@H]2N1c1cccc2[nH]ccc12`, in the data set on Neuron [1], the result was inactive. The Activity result in the data set on Neuron [2] is listed as “Dose-Dependent Effect”.

The record behind these values is ChEMBL document CHEMBL5523743, “Identification of Psychoplastogenic Tropanes Lacking Muscarinic Activity” (J Med Chem, 2024).
